# Columns and labels:
# [1] = test system: L. mexicana Cas9 promastigotes; experiment: Alamar blue drug sensitivity assay, L. mexicana Cas9 promastigotes; assay type: cell-based, Leishmania mexicana; details: Leishmania mexicana, 120 h, 72 h + 48 h resazurin, at least 3 independent determinations, read-out: EC50 (µM) AVG ± SEM, Cas9
# Outline: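 Promastigotes cultured in HOMEM with 10% FBS at 25 °C were added as a 2 × 10^6 cells mL^−1 culture to 23-point compound dilutions. After 72 h at 25 °C, resazurin was added for a further 48 h, and fluorescence was read at ex 544/em 620 nm. EC50 came from a variable-slope sigmoid fit (3–4 independent experiments).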
# [2] = test system: L. mexicana Cas9^ΔNT1 promastigotes; experiment: Alamar blue drug sensitivity assay, L. mexicana Cas9^ΔNT1 promastigotes; assay type: cell-based, Leishmania mexicana; details: EC50 Cas9^ΔNT1 relative to L. mexicana Cas9
# From the text: We used L. mexicana promastigotes of the Cas9 strain developed by Beneke at al. to generate the ΔNT1 strain, and from there the Cas9^ΔNT1+TcrNT2 (see below); The original Cas9 strain was generously donated by Prof. Eva Gluenz (University of Bern, Switzerland). All strains in standard HOMEM (GIBCO, Life Technologies, Paisley, UK) supplemented with 10% heat-inactivated fetal bovine serum (FBS; PAA Laboratories, Linz, Austria) and 1% of a penicillin–streptomycin solution (10,000 U mL^−1 each; Life Technologies) at 25 °C, as described.
# The Alamar blue assay (resazurin sodium salt) was used to determine the drug sensitivity of the L. mexicana promastigotes in vitro. The assay is based on the reduction of resazurin sodium salt (blue and non-fluorescent) to resorufin (pink color and fluorescent) by live cells. HOMEM medium with 10% FBS (100 μL) was added to all wells of a white 96-well plate apart from the first well. 200 μL of a known concentration of test compounds was diluted in HOMEM medium and placed in the first well. Compounds were tested in one plate and every compound was diluted over two rows (23 concentrations), leaving the last well of every dilution as a negative control having 100 μL HOMEM medium. Next, 100 μL of L. mexicana culture at a density of 2 × 10^6 cells mL^−1 was added into every well in the plate and incubated for 72 h at a temperature of 25 °C after which resazurin sodium salt (Sigma) (20 μL of a solution of 12.5 mg in 100 mL PBS) was added and the plate was incubated under the same conditions for a further 48 h. Fluorescence was measured in a FLUOstar OPTIMA plate reader (BMG Labtech, Germany), at a wavelength of 544 nm for excitation and 620 nm for emission. The EC50 values and fluorescence data were determined and plotted by the GraphPad Prism 8 Software using an equation for a sigmoid curve with variable slope. Pentamidine was used as positive control and every experiment was performed 3–4 times independently.
# [3] = biological target: TcrNT2 (Trypanosoma cruzi, UniProt Q4DHG0); experiment: Transport of [^3H]-thymidine by TcrNT2 expressed in L. mexicana Cas9^ΔNT1 (Km, inhibition); assay type: cell-based
# Procedure: These values can be used to calculate the Gibbs free energy of interaction ΔG°, but these experiments cannot distinguish between the test compound being transported or merely binding to the transporter and inhibiting the transit of the [^3H]-thymidine.
# Transport assays were conducted with radiolabeled nucleosides [methyl-^3H]-thymidine (20 Ci/mmol; PerkinElmer (Waltham, MA, USA)) and [2,8-^3H]-adenosine (40 Ci/mmol; American Radiolabeled Chemicals (ARC, St-Louis, MO, USA)). Cells were harvested from mid-log phase cultures by centrifugation and washed into an assay buffer (AB) as described, at a density of 1 × 10^8 cells mL^−1. Transport assays were then performed exactly as described previously, using an oil-stop protocol. Briefly, 100 µL of cell suspension (10^7 cells) was mixed with 100 µL of [^3H]-substrate at 2 × final concentration and incubated for a pre-set time prior to the addition of 800 µL of ice-cold AB containing a saturating concentration of unlabeled permeant (usually 1 or 2.5 mM) and immediate centrifugation through an oil layer to separate cells from extracellular radiolabel. The 100 µL of [^3H]-substrate could also contain unlabeled substrate or an inhibitor at 2 × concentration, as appropriate. Next, the microfuge tubes were flash frozen in liquid nitrogen; the tips with the cell pellets cut off and collected in scintillation tubes. Cells were solubilized by incubation in 2% SDS under gentle shaking on a rocking platform prior to the addition of scintillation fluid (Scintilogic U, Lablogic, Sheffield, UK). The tubes stored in the dark overnight before counting in a 300SL Hidex Scintillation Counter (Lablogic).
# Michaelis-Menten constants (Km) were calculated by plotting transport rates of [^3H]-substrate against the concentration, using the Michaelis-Menten equation V0 = Vmax([substrate]/([substrate] + Km)) and non-linear regression in GraphPad Prism 8. Inhibition constants (Ki) were calculated using the Cheng-Prusoff equation: Ki = IC50/(1 + (L/Km)), where L represents the radiolabel concentration. The IC50 was obtained by a non-linear regression of the inhibition curve of transport rate versus inhibitor concentration, using an equation for a sigmoid curve with variable slope (GraphPad Prism 8). The Gibbs free energy ΔG° was obtained using the equation ΔG° = −RTln(Ki), in which R is the gas constant and T is the absolute temperature. As discussed previously, these equations apply to competitive rather than non-competitive inhibition. Given that only close analogues of the substrate were used as potential inhibitors and that Hill slopes were consistently close to −1, it is very likely that inhibition was indeed competitive.
# [4] = test system: L. mexicana; set-up: method as in PMID 28453984; details: ref [36]; read-out: EC50 against L. mexicana; cited from earlier work
# [5] = test system: bloodstream form T. brucei; set-up: method as in PMID 23188714, PMID 23505454; details: ref [47],[54]; read-out: EC50 against bloodstream form T. brucei; cited from earlier work
# Sequence of TcrNT2 (Q4DHG0 entry or part of it): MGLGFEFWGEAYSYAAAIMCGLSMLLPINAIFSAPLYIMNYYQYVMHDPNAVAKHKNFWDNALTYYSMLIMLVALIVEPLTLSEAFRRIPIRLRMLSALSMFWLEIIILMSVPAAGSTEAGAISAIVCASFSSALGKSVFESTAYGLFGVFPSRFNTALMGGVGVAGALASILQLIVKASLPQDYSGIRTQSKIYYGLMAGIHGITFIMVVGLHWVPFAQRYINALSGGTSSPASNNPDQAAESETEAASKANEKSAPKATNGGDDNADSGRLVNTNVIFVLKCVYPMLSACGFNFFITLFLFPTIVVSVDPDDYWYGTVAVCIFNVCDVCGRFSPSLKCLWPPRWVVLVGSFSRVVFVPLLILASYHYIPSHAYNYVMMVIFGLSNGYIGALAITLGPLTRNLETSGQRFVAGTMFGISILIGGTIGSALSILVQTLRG
smiles,measurement,setting,value
"O=c1[nH]c(=O)n([C@H]2C[C@H](O)[C@@H](CO)O2)cc1F [5-F-2′-dUrd, 5-F-2′-deoxyuridine]",EC50,[1],2.19 ± 0.11 µM
same,RF vs. Cas9 (resistance factor),[2],26.6
same,ΔG° (Gibbs free energy of interaction),[3]; calculated from Km or Ki at 25 °C,-33.2 kJ/mol
same,δ(ΔG°) with respect to ΔG° of thymidine,[3]; change in ΔG° relative to thymidine,-4.32 kJ/mol
same,Ki,[3]; read-out: Ki on the transport of [^3H]-thymidine by TcrNT2,1500 ± 120 nM
same,EC50,[4],1700 nM
same,EC50,[5],5.2 µM

# Reference: PMC9693223 (Molecules, 2022)
